# Read-outs that look alike come from different tables or passages of the source.
# Assays:
# PC3 tumors = test: Antitumor activity of Compound 1 in PC3 human prostate cancer xenograft model; format: in vivo, SCID mice; conditions: for tumor volume reduction compared with vehicle control: Day 31; for tumor volume reduction compared to vehicle control / tumor inhibition compared to vehicle control: day 31
# Method: The BID dose groups were dosed with a 10-hour separation between the morning and evening doses. […] At the end of each study, plasma and/or tumor samples were collected.
# PC3 cell line was obtained from American Tissue Culture Collection (ATCC) (Gaithersberg, Md.) and grown in growth medium containing Ham's F12K medium with 2 mM L-glutamine adjusted to contain 1.5 g/L sodium bicarbonate and 10% of fetal bovine serum. The cells were detached from tissue culture flasks using trypsin-EDTA. After centrifugation, the cell pellets were suspended in phosphate buffered saline (PBS) and counted using a hemocytometer.
# Mice were anesthetized with inhaled isoflurane and then inoculated with PC3 tumor cells subcutaneously on the right hind leg with 0.1 mL of single cell suspensions in Matrigel using a sterile 1 mL syringe fitted with a 26 gauge needle. Following inoculation, the mice were returned to microisolator cages.
# Following inoculation, the tumors were allowed to grow to about 100 mm^3 or 500 mm^3 prior to randomization. For efficacy studies, animals with tumors of approximately 100 mm^3 were used. The typical number of days required for tumors to reach 100 mm^3 was 9 to 11 days. The tumor of each animal was measured and animals with tumors ranging between 100 and 200 mm^3 were included in the study. For tolerability and regression studies, animals with tumors of approximately 500 mm^3 (range 300-500 mm^3) were used. The typical number of days required for tumors to reach 500 mm^3 was 20 to 22 days. The animals were then distributed randomly into various cages and the cages were randomly assigned to vehicle, positive control or test article groups. All of the mice were tagged with metal ear tags on the right ear. A typical efficacy study group consisted of 8 to 10 animals. Tolerability study group consisted of 4-6 animals.
# The formulations were homogenized using a Teflon™ pestle and mortar (Potter-Elvehjem tissue grinder). Between the doses, the formulated compound was stored under constant stirring using a magnetic stirrer at 4° C. in the dark. The test article and vehicle were administered by oral gavage. […] Sterile syringes and gavage needles were used for compound administration. All the procedures including injections were done in biosafety cabinets sprayed with 70% ethanol prior to use.
# Tumor volumes were determined prior to the initiation of treatment and were considered as the starting volumes. Thereafter, tumors were measured twice a week for the duration of the study. The long and short axes of each tumor were measured using a digital caliper in millimeters. The tumor volumes were calculated using the formula: width^2× length/2. The tumor volumes were expressed in cubic millimeters (mm^3).
# PC3 cell line = test: WST-1 cell proliferation assay (Compound 2); format: cell-based; conditions: Homo sapiens
# Method: All growth inhibition experiments were repeated on different occasions at least twice. Potency was determined by calculating the IC50 value using the data describing the growth inhibition curve. A reference compound was included in each plate assay to monitor inter-assay variation and the IC50 value for the reference compound was used as part of the acceptance criteria for the assay. […] Next, compound was added to the designated well at a dilution of 1:10 (i.e., 20 μL of the diluted compound was added to 180 μL of culture media in each well). The final dilution of compound was 1:500, which yielded a final DMSO concentration of 0.2% in each well. All concentrations were performed in triplicate. Additionally, each plate tested contained cells treated with a reference compound in order to evaluate interassay variation and the IC50 value generated was used as criteria in accepting the test data. […] Cell proliferation was assessed using the WST-1 assay, which is based on measurement of metabolic activity via the reduction of tetrazolium salts to formazan salts. […] Absorbance was measured at 450 nm on the VICTOR™ X2 multilabel plate reader (PerkinElmer). […] The software (XLfit from IDBS) calculated the percentage inhibition at each concentration of compound by normalizing to the DMSO control values. […] Percentage inhibition curves were plotted and IC50 values calculated.
# DNA-PKcs = test: Total DNA-PKcs immunohistochemistry in PC3 tumors (Compound 2); format: in vivo, SCID mice; conditions: 5 mg/kg QD for 6 days, 2 hours after the last dose
compound,measurement,setting,value
"CO[C@H]1CC[C@H](N2C(=O)CNc3ncc(-c4ccc(C(C)(C)O)nc4)nc32)CC1 [Compound 1, 7-(6-(2-hydroxypropan-2-yl)pyridin-3-yl)-1-((1r,4r)-4-methoxycyclohexyl)-3,4-dihydropyrazino-[2,3-b]pyrazin-2(1H)-one]",tumor volume reduction compared with vehicle control,PC3 tumors; 5 mg/kg BID,64.9%
same,tumor volume reduction compared with vehicle control,PC3 tumors; 10 mg/kg BID,79.9%
same,tumor volume reduction compared to vehicle control,PC3 tumors; 10 mg/kg QD oral,46.1%
same,average tumor volume,"PC3 tumors; 10 mg/kg QD, Day 31 (vehicle 712)",383 mm^3
same,tumor inhibition compared to vehicle control,PC3 tumors; 25 mg/kg Q2D,72%
same,tumor inhibition compared to vehicle control,PC3 tumors; 25 mg/kg Q3D,61%
same,average tumor volume,"PC3 tumors; 25 mg/kg QD group, Day 52 after 3 weeks without dosing",about 427 mm^3
same,tumor response,"PC3 tumors; 25 mg/kg QD oral, 3 weeks",Tumor regression
same,tumor volume reduction compared to vehicle control,PC3 tumors; 25 mg/kg QD oral,86.7%
same,average tumor volume,"PC3 tumors; 25 mg/kg QD, Day 31 (158 on Day 11; vehicle 712)",123 mm^3
same,tumor volume at the end of the second cycle,"PC3 tumors; 25 mg/kg QD, second 3-week cycle",approximately 729 mm^3
same,tumor inhibition compared to vehicle control,PC3 tumors; 50 mg/kg Q3D,82%
same,tumor inhibition compared to vehicle control,PC3 tumors; 50 mg/kg Q5D,61%
same,tumor inhibition compared to vehicle control,PC3 tumors; 50 mg/kg Q7D,49%
same,lowest (minimal) efficacious dose,"PC3 tumors; BID, determined by 65% tumor volume inhibition",5 mg/kg
same,tumor response,"PC3 tumors; regression study, 1 mg/kg BID, vs vehicle",significantly (p<0.01) slowed tumor growth
same,tumor response,"PC3 tumors; regression study, 5 mg/kg BID",stasis of tumor growth
same,tumor response,"PC3 tumors; regression study, 10 mg/kg BID",regression of PC3 tumors
same,average tumor volume,"PC3 tumors; regression study, 10 mg/kg BID, day 43 (482.2±12.6 on day 20)",343.6±32.6 mm^3
same,tumor response,"PC3 tumors; regression study, 25 mg/kg Q2D",regression of tumors initially during the first 2 weeks of dosing
same,tumor volume,"PC3 tumors; regression study, 25 mg/kg Q2D, day 43 (475.1±19.6 on day 20)",549.4±45.7 mm^3
"CCN1C(=O)CNc2ncc(-c3ccc(-c4nc[nH]n4)nc3C)nc21 [Compound 2, 1-ethyl-7-(2-methyl-6-(1H-1,2,4-triazol-3-yl)pyridin-3-yl)-3,4-dihydropyrazino[2,3-b]pyrazin-2(1H)-one]",IC50,"PC3 cell line; PC-3, 72 h, PC3 cell line, 3 days, average, read-out: growth inhibition IC50",140 nM
same,IC50,"PC3 cell line; PC-3, prostate tumor cells, read-out: growth inhibition IC50 values",140 to 1310 nM
same,positive threshold area stained for DNA-PKcs vs vehicle,DNA-PKcs,no significant difference

# From patent US20140113904A1, “TREATMENT OF CANCER WITH TOR KINASE INHIBITORS” (SIGNAL PHARMACEUTICALS, LLC, priority 2012, published 2014)
